Measurements taken from ChEMBL document CHEMBL1201862, “PubChem BioAssay data set” (2004).
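All cell lines were grown in 96-well plates and treated with compound for 48 hours. At the GI50, growth is halved.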 Active and inactive are the calls of the source. No stated cut-off is given here; in the data, active = GI50 up to about 1.1 µM and inactive = higher.

Assays:
Assay in all cases: inhibition of tumour cell growth, NCI panel, 48 h
U-251 = system: U-251
MCF7 = system: MCF7
SF-295 = system: SF-295
NCI-H23 = system: NCI-H23
HOP-92 = system: HOP-92
DU-145 = system: DU-145
EKVX = system: EKVX
NCI-H226 = system: NCI-H226
A549 = system: A549
UO-31 = system: UO-31
786-0 = system: 786-0
SN12C = system: SN12C
RPMI-8226 = system: RPMI-8226
HL-60 = system: HL-60
SK-OV-3 = system: SK-OV-3
IGROV-1 = system: IGROV-1
NCI-H460 = system: NCI-H460
HOP-62 = system: HOP-62
SW-620 = system: SW-620
SF-268 = system: SF-268
SK-MEL-28 = system: SK-MEL-28
K562 = system: K562
KM12 = system: KM12
A498 = system: A498
RXF 393 = system: RXF 393
TK-10 = system: TK-10
UACC-62 = system: UACC-62
CCRF-CEM = system: CCRF-CEM
SK-MEL-5 = system: SK-MEL-5
HCT-116 = system: HCT-116
ACHN = system: ACHN
SNB-19 = system: SNB-19
NCI/ADR-RES = system: NCI/ADR-RES
HT-29 = system: HT-29
Hs-578T = system: Hs-578T
MOLT-4 = system: MOLT-4
COLO 205 = system: COLO 205
Malme-3M = system: Malme-3M
LOX IMVI = system: LOX IMVI
BT-549 = system: BT-549
HCT-15 = system: HCT-15
MDA-MB-435 = system: MDA-MB-435
MDA-MB-231 = system: MDA-MB-231
SK-MEL-2 = system: SK-MEL-2
OVCAR-3 = system: OVCAR-3
OVCAR-8 = system: OVCAR-8
SF-539 = system: SF-539
PC-3 = system: PC-3
OVCAR-5 = system: OVCAR-5
M14 = system: M14
T47D = system: T47D
SR = system: SR
CAKI-1 = system: CAKI-1
HCC 2998 = system: HCC 2998
OVCAR-4 = system: OVCAR-4
NCI-H522 = system: NCI-H522
UACC-257 = system: UACC-257
MDA-N = system: MDA-N
SNB-75 = system: SNB-75

`COc1ccc(C2=Nc3cc(C)c(C)cc3NC(c3ccccc3)C2)cc1` (stereo not drawn) was tested, and the GI50 (U-251) was > 100 µM (inactive), the GI50 (MCF7) was 6.46 µM (inactive) and the GI50 (SF-295) was > 100 µM (inactive). For the same compound, the GI50 (NCI-H23) was > 100 µM (inactive), the GI50 (HOP-92) was 24.1 µM (inactive) and the GI50 (DU-145) was > 100 µM (inactive). For the same compound, the GI50 (EKVX) was > 100 µM (inactive), the GI50 (NCI-H226) was > 100 µM (inactive) and the GI50 (A549) was 44.7 µM (inactive). The GI50 (UO-31) was 57 µM (inactive), the GI50 (786-0) was > 100 µM (inactive) and the GI50 (SN12C) was > 100 µM (inactive). The GI50 (RPMI-8226) was 15.9 µM (inactive), the GI50 (HL-60) was 18.7 µM (inactive) and the GI50 (SK-OV-3) was > 100 µM (inactive). The GI50 (IGROV-1) was > 100 µM (inactive), the GI50 (NCI-H460) was 46.2 µM (inactive) and the GI50 (HOP-62) was > 100 µM (inactive). For the same compound, the GI50 (SW-620) was > 100 µM (inactive), the GI50 (SF-268) was > 100 µM (inactive) and the GI50 (SK-MEL-28) was > 100 µM (inactive). The GI50 (K562) was 21.9 µM (inactive), the GI50 (KM12) was > 100 µM (inactive) and the GI50 (A498) was > 100 µM (inactive). For the same compound, the GI50 (RXF 393) was > 100 µM (inactive), the GI50 (TK-10) was > 100 µM (inactive) and the GI50 (UACC-62) was > 100 µM (inactive). For the same compound, the GI50 (CCRF-CEM) was 17.3 µM (inactive), the GI50 (SK-MEL-5) was 29.6 µM (inactive) and the GI50 (HCT-116) was 27 µM (inactive). The GI50 (ACHN) was > 100 µM (inactive), the GI50 (SNB-19) was > 100 µM (inactive) and the GI50 (NCI/ADR-RES) was 43.4 µM (inactive). The GI50 (HT-29) was 20.1 µM (inactive), the GI50 (Hs-578T) was > 100 µM (inactive) and the GI50 (MOLT-4) was 16.3 µM (inactive). The GI50 (COLO 205) was 17.7 µM (inactive), the GI50 (Malme-3M) was 40.5 µM (inactive) and the GI50 (LOX IMVI) was 28.7 µM (inactive). The GI50 (BT-549) was > 100 µM (inactive), the GI50 (HCT-15) was 41.4 µM and the GI50 (MDA-MB-435) was 50.2 µM (inactive). The GI50 (MDA-MB-231) was > 100 µM (inactive), the GI50 (SK-MEL-2) was > 100 µM (inactive) and the GI50 (OVCAR-3) was > 100 µM (inactive). The GI50 (OVCAR-8) was > 100 µM (inactive), the GI50 (SF-539) was > 100 µM (inactive) and the GI50 (PC-3) was > 100 µM (inactive). The GI50 (OVCAR-5) was > 100 µM (inactive), the GI50 (M14) was > 100 µM (inactive) and the GI50 (T47D) was 21.7 µM (inactive). For the same compound, the GI50 (SR) was 4.86 µM (inactive), the GI50 (CAKI-1) was > 100 µM (inactive) and the GI50 (HCC 2998) was > 100 µM (inactive). The GI50 (OVCAR-4) was > 100 µM (inactive), the GI50 (NCI-H522) was 30.8 µM (inactive) and the GI50 (UACC-257) was 34.4 µM (inactive).
For `O=C1/C(=C/c2ccc3c(c2)CCC3)Cc2cc3c(cc21)CCC3`, the GI50 (U-251) was > 100 µM (inactive), the GI50 (MCF7) was > 100 µM (inactive) and the GI50 (SF-295) was > 100 µM (inactive). For the same compound, the GI50 (NCI-H23) was > 100 µM (inactive), the GI50 (HOP-92) was < 0.01 µM (active) and the GI50 (DU-145) was > 100 µM (inactive). For the same compound, the GI50 (EKVX) was > 100 µM (inactive), the GI50 (NCI-H226) was > 100 µM (inactive) and the GI50 (A549) was > 100 µM (inactive). For the same compound, the GI50 (UO-31) was > 100 µM (inactive), the GI50 (SN12C) was > 100 µM (inactive) and the GI50 (RPMI-8226) was > 100 µM (inactive). For the same compound, the GI50 (HL-60) was > 100 µM (inactive), the GI50 (SK-OV-3) was > 100 µM (inactive) and the GI50 (MDA-N) was > 100 µM (inactive). For the same compound, the GI50 (IGROV-1) was > 100 µM (inactive), the GI50 (NCI-H460) was > 100 µM (inactive) and the GI50 (HOP-62) was > 100 µM (inactive). The GI50 (SW-620) was > 100 µM (inactive), the GI50 (SF-268) was > 100 µM (inactive) and the GI50 (SK-MEL-28) was > 100 µM (inactive). For the same compound, the GI50 (K562) was > 100 µM (inactive), the GI50 (KM12) was > 100 µM (inactive) and the GI50 (A498) was > 100 µM (inactive). The GI50 (RXF 393) was 49.3 µM (inactive), the GI50 (TK-10) was > 100 µM (inactive) and the GI50 (UACC-62) was > 100 µM (inactive). For the same compound, the GI50 (CCRF-CEM) was > 100 µM (inactive), the GI50 (SK-MEL-5) was > 100 µM (inactive) and the GI50 (HCT-116) was > 100 µM (inactive). The GI50 (ACHN) was > 100 µM (inactive), the GI50 (SNB-19) was 61.9 µM (inactive) and the GI50 (NCI/ADR-RES) was > 100 µM (inactive). For the same compound, the GI50 (HT-29) was > 100 µM (inactive), the GI50 (MOLT-4) was > 100 µM (inactive) and the GI50 (COLO 205) was > 100 µM (inactive). For the same compound, the GI50 (Malme-3M) was > 100 µM (inactive), the GI50 (LOX IMVI) was > 100 µM (inactive) and the GI50 (BT-549) was > 100 µM (inactive). The GI50 (HCT-15) was over 100 µM, the GI50 (MDA-MB-435) was > 100 µM (inactive) and the GI50 (MDA-MB-231) was 76.9 µM (inactive). The GI50 (SK-MEL-2) was > 100 µM (inactive), the GI50 (OVCAR-3) was > 100 µM (inactive) and the GI50 (OVCAR-8) was > 100 µM (inactive). The GI50 (SF-539) was > 100 µM (inactive), the GI50 (PC-3) was > 100 µM (inactive) and the GI50 (OVCAR-5) was > 100 µM (inactive). The GI50 (SNB-75) was 26.2 µM (inactive), the GI50 (M14) was > 100 µM (inactive) and the GI50 (T47D) was 3.53 µM (inactive). For the same compound, the GI50 (SR) was > 100 µM (inactive), the GI50 (HCC 2998) was > 100 µM (inactive) and the GI50 (OVCAR-4) was > 100 µM (inactive). The GI50 (NCI-H522) was > 100 µM (inactive) and the GI50 (UACC-257) was > 100 µM (inactive).
